Literature values, collected in article PMC10010621, “ATP binding by an F1Fo ATP synthase ε subunit is pH dependent, suggesting a diversity of ε subunit functional regulation in bacteria” (Frontiers in Molecular Biosciences, 2023).

Tests used:
Bacillus PS3 ε subunit = conditions: isolated ε subunit; ref Kato et al., 2007; read-out: Kd (ATP binding affinity)
[1] = biological target: εR103A/εR115A double-mutant ε subunit of Bacillus PS3; parameters: method as in Kato-Yamada, 2016; conditions: ref Kato-Yamada, 2016, read-out: ATP binding affinity
[2] = biological target: Bacillus subtilis ε subunit; parameters: method as in Kato-Yamada, 2005; Krah et al., 2021; conditions: isolated ε subunit; ref Kato-Yamada, 2005; Krah et al., 2021; read-out: Kd (ATP binding affinity)
[3] = test system: B. subtilis ε subunit εE102A; parameters: method as in Krah et al., 2021; conditions: εE102A versus wild-type; ref Krah et al., 2021
[4] = test system: B. subtilis ε subunit εE102R; parameters: method as in Krah et al., 2021; conditions: εE102R versus wild-type; ref Krah et al., 2021
[5] = test system: Escherichia coli ε subunit; parameters: method as in Yagi et al., 2007; conditions: isolated ε subunit; ref Yagi et al., 2007; read-out: Kd (ATP binding affinity)
[6] = test system: ε subunit of M. tuberculosis; parameters: method as in Biukovic et al., 2013; conditions: at the conditions measured; ref Biukovic et al., 2013
[7] = test system: C. thermarum ε subunit NTH mutant (εD89A, εR92A); parameters: method as in Ferguson et al., 2016; conditions: F1 domain, ref Ferguson et al., 2016
[8] = parameters: method as in Tanokura et al., 1976; conditions: solution phase; ref Tanokura et al., 1976

Structure (SMILES)	Kd (Bacillus PS3 ε subunit) [µM]	Kd [1] [µM]	Kd [2] [µM]	increase in ATP binding affinity [3] [fold]	increase in ATP binding affinity [4] [fold]	Kd [5] [µM]	ATP binding [6]	ATP binding [7]	pKa of the imidazole group [8]
Nc1ncnc2c1ncn2[C@@H]1O[C@H](COP(=O)(O)OP(=O)(O)OP(=O)(O)O)[C@@H](O)[C@H]1O [ATP]	4.3	0.052	2100	~10	~54	22000	did not bind to ATP	lack of ability to bind ATP	–
N[C@@H](Cc1c[nH]cn1)C(=O)O [histidine]	–	–	–	–	–	–	–	–	6.0–6.5
